Tests used:
[1] = In-vitro mouse microsomal stability; format: in vitro ADME; details: mouse microsomes, 1 microMolar compound, at T = 60 minutes
Procedure: Human and mouse microsomal stability was determined for select compounds following the method of Houston (Houston, J. B; Biochem. Pharmacol. 47, (1994),1469).
1 μM concentration of compound and separate human and mouse microsomes (0.3 mg/mL, BD bioscience) were used in the in-vitro assay. To ensure proper energy supply for microsomal degradation of compound, an energy regenerating system comprised of 100 mM potassium phosphate, 2 mM NADPH, 3 mM MgCl2, pH=7.4. and the microsomal protein is added to each sample and the resulting suspension is then incubated in duplicate for 60 min at 37° C. in a rotary shaker. A control is run for each test agent in duplicate omitting NADPH to detect NADPH-free degradation. At T=0 and T=60 min., an aliquot is removed from each experimental and control reaction and then mixed with an equal volume of ice-cold Stop Solution (consisting of 0.3% acetic acid in acetonitrile containing haloperidol and diclofenac as internal standards). Stopped reactions are then incubated for at least ten minutes at −20° C., and an additional volume of water is then added. The samples are then centrifuged to remove precipitated protein, and the supernatants are then analyzed by LC-MS/MS to determine the percentage of compound remaining. The LC-MS/MS system used was an Agilent 6410 mass spectrometer coupled with an Agilent 1200 HPLC and a CTC PAL chilled autosampler, all controlled by MassHunter software (Agilent), or an ABI2000 mass spectrometer coupled with an Agilent 1100 HPLC and a CTC PAL chilled autosampler, all controlled by Analyst software (ABI). After separation on a C18 reverse phase HPLC column (Agilent, Waters, or equivalent) using an acetonitrile-water gradient system, peaks were analyzed by mass spectrometry (MS) using ESI ionization in MRM mode.

[2] = tested on: spinal nerve ligation (SNL) mouse model; test: Intrathecal (i.t.) SNL-mouse model of neuropathic pain, von Frey mechanical allodynia; format: in vivo, FVB male mice
Excerpt: (§1) To measure the neuropathic pain inhibiting affects of the MMP inhibitors of the present invention, the spinal nerve ligation (SNL) mouse model was run on a select number of compounds. This model which began with the work of Bennet and coworkers (Bennet, G. J. et al. Pain, 33, (1988), 87-107) and was optimized by Kim and Chung (Kim, S. H.; Chung, J. M. Pain, 50, (1992), 355-363) entails first, under magnification, the removal of one-third of the transverse process and then identifying and then dissecting free the L5 spinal nerve from the adjacent L4 spinal nerve in the mouse. The L5 spinal nerve is then tightly ligated using 6.0 silk suture. The nerve injury leads to hyperalgesia which manifests itself by enhanced responses to mechanical, heat and/or cooling stimuli. In this case, mechanical hyperalgesia is tested via Von Frey monofilaments in which filaments of varying thicknesses and bending force are individually applied to the plantar surface of the foot of the mouse. The threshold force necessary for paw withdrawal decreases dramatically after the nerve surgery. Potent pain inhibitors will reverse this affect resulting in greater force needing to be applied to cause the rodent paw to withdrawal.
Following preoperative baseline (Day −2) paw threshold measurement, FVB male mice were subjected to SNL injury (Day −1). The next day (Day 0) after SNL surgery, the animals were tested for post-operative baseline threshold measurements for mechanical allodynia; and the animals were then randomly assigned to one of 3 treatment groups (see Table 9). Over the course of the study, paw withdrawal threshold of these animals was measured in response to mechanical stimulation using the von Frey Monofilament Test.
To avoid systemic effects of the MMP inhibitors, the MMP inhibitors of the present invention were delivered into the cerebral spinal fluid (CSF) space around lumbosacral spinal cord via intrathecal (i.t.) administration, with the idea of targeting MMPs in the DRG, spinal cord, and spinal CSF. Intrathecal MMP inhibitor administration could then target not only spinal cord cells but also DRG cells. Each intrathecal (i.t.) injection was carried out according to the technique of Hylden and Wilcox (Hylden J L, Wilcox G L. Eur. J. Pharmacol., 67, (1980), 313-6) 5.2 mg of each of the MMP inhibitors were first dissolved in 140 microliters of DMSO and then put into 1260 microliters of 0.5% hydroxypropyl cellulose (HPC) in water to make a fine suspension composed of compound in 10% DMSO-0.5% hydroxypropyl cellulose. 10 microliters of the mixture was injected into the intrathecal space of male FVB mice (weighing 22-25 grams each and obtained from the Jackson Laboratories, Bar Harbor, Me.), by lumbar puncture in a volume of 10 μl/mouse using a Hamilton microsyringe via a 30 gauge needle inserted between lumbar vertebrae 5 and 6. In brief, each animal was held firmly by the pelvic girdle in one hand, while the needle was inserted into the tissue on the right side of the L5 or L6 spinous process. The needle was moved forward and slipped into the groove between the spinous process and transverse process and gently moved forward to the intervertebral space at ˜10° angle. As the needle was inserted (˜0.5 cm) within the vertebral column a tail flick was evident, and the solution was then injected.
Tactile Allodynia Test. Mechanical allodynia was measured using the calibrated von Frey filaments (Semmes-Weinstein monofilaments; Stoelting, Wood Dale, Ill., U.S.A.). The plantar surface of the left injured paw of each animal was tested as described by Chaplan et al. (Journal of Neuroscience Methods, 53, (1994), 55-63). The Fifty percent paw withdrawal threshold response was determined by sequentially increasing or decreasing the stimulus strength according to the “up-down method” of Dixon (Annual Review Pharmacology Toxicology, 20, (1980), 441-462). […]

[3] = tested on: spinal nerve ligation (SNL) mouse model; test: Intraperitoneal (i.p.) SNL-mouse model of neuropathic pain, von Frey mechanical allodynia; format: in vivo
Excerpt: as §1
Tactile Allodynia Test. Mechanical allodynia was measured using the calibrated von Frey filaments (Semmes-Weinstein monofilaments; Stoelting, Wood Dale, Ill., U.S.A.). The plantar surface of the left injured paw of each animal was tested as described by Chaplan et al. (Journal of Neuroscience Methods, 53, (1994), 55-63). The Fifty percent paw withdrawal threshold response was determined by sequentially increasing or decreasing the stimulus strength according to the “up-down method” of Dixon (Annual Review Pharmacology Toxicology, 20, (1980), 441-462). For mice, […] von Frey filaments were used, with approximately equal logarithmic incremental bending forces (von Frey number: 1.65, 2.36, 2.44, 2.83, 3.22, 3.61, 3.84, 4.08, and 4.17; equivalent to 0.005, 0.02, 0.03, 0.07, 0.17, 0.41, 0.69, 1.20, and 1.48 g force, respectively).
Prior to testing, each animal was placed in a suspended clear plastic chamber with a wire mesh bottom and acclimated for 15 minutes. Testing was initiated with the 0.07 g (handle marking of 2.83) applied perpendicularly to the plantar surface of the affected hind paw; each filament was applied with enough pressure to cause a buckle effect. The absence of a paw lifting/withdrawal response after 6 s prompted the use of the next higher weight filament. Paw withdrawal, indicating a positive response, prompted the use of a weaker filament. After the initial positive response (i.e., paw withdrawal), the testing continued for four additional measurements, and was used to calculate the response threshold. Four consecutive positive responses received a score of 0.001 g, and five consecutive negative responses (i.e., no paw withdrawal) received a score of 1.5 g.
Analyses for Tactile Allodynia Testing. The 50% paw withdrawal threshold was calculated (PWT; Luo and Calcutt, J. Pharmacology Experimental Therapeutics, 303(3), (2002), 1199-1205; Chaplan et al. Journal of Neuroscience Methods, 53, (1994), 55-63) using the formula: 10(Xf+κδ)/10,000 where Xf is the final von Frey filament used (log units), κ is a value that analyzes the response pattern (taken from the table published by Chaplan et al., 1994), and δ is the mean difference between stimuli (log units).
Except for the mode of administration, number of mice/group and the number of injections and amount of compound per injection, the rest of the study was done in the same manner (in regards to the surgeries and tactile allodynia testing and analysis) as Experiment 110. 3.2 mg of each of the MMP inhibitors #5 and #118 were dissolved in 320 microliters of DMSO. To the solution was then added 32 microliters of Tween 80, followed by 2850 microliters of phosphate buffered saline (PBS). This gave a final concentration of 10% DMSO, 1% Tween and 1 mg/ml compound. […]

mechanical nociception = details: in vivo; cited from earlier work
humans = humans (S-3304: animals or man); cited from earlier work
MMP-12 = MMP-12 (Homo sapiens, UniProt P39900); details: cited from earlier work
MMP-2 = target: T1, MMP-2 (Homo sapiens, UniProt P08253); details: cited from earlier work
T1 sequence (P08253 110-660): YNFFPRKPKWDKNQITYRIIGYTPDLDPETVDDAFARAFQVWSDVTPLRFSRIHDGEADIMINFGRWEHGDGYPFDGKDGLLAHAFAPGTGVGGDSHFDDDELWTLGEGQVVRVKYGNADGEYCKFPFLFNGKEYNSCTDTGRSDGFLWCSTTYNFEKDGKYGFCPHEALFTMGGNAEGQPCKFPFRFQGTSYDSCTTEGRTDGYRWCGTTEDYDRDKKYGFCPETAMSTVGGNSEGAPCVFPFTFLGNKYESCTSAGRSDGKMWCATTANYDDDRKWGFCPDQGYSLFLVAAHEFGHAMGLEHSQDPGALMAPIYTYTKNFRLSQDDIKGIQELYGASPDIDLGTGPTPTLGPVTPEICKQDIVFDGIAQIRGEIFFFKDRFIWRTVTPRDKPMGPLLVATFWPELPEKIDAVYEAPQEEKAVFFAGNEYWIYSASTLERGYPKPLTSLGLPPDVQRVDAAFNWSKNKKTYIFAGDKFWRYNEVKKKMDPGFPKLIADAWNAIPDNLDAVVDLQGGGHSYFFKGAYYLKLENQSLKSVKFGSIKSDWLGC

MMP-8 = MMP-8 (Homo sapiens, UniProt P22894); details: cited from earlier work
MMP-13 = MMP-13 (Homo sapiens, UniProt P45452); details: cited from earlier work
MMP-9 = MMP-9 (Homo sapiens, UniProt P14780); details: cited from earlier work
MMP-3 = MMP-3 (Homo sapiens, UniProt P08254); details: cited from earlier work
MMP-7 = target: T2, MMP-7 (Homo sapiens, UniProt P09237); details: cited from earlier work
T2 sequence (P09237 95-267): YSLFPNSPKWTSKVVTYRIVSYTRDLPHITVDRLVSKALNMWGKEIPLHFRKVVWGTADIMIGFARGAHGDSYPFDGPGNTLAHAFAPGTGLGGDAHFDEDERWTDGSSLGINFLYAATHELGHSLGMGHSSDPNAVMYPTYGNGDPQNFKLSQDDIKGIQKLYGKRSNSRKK

rat formalin test = details: cited from earlier work
[4] = tested on: L5 spinal nerve ligation (SNL) neuropathic pain model; details: in vivo; cited from earlier work
[5] = i.p. 100 μl/mouse daily (approx. 3.3 mg/Kg), day 1-5

Chain of MMP-9 (P14780 94-707, species assumed): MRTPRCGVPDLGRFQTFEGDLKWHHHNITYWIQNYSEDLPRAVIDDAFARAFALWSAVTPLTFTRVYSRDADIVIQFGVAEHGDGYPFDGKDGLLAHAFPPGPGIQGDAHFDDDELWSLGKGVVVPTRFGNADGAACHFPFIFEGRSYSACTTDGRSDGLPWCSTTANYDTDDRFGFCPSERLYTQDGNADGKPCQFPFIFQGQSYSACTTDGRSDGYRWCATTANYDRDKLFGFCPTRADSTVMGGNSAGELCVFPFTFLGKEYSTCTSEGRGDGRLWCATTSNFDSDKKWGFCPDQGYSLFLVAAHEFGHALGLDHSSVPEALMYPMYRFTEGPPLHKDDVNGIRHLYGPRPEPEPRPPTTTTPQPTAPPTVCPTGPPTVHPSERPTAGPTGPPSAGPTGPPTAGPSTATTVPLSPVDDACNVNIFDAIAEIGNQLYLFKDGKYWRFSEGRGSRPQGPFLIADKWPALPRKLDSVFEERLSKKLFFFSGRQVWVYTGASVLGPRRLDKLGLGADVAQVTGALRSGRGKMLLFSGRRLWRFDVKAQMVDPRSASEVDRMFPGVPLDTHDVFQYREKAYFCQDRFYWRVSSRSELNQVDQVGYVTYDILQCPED
Chain of MMP-8 (P22894 101-467, species assumed): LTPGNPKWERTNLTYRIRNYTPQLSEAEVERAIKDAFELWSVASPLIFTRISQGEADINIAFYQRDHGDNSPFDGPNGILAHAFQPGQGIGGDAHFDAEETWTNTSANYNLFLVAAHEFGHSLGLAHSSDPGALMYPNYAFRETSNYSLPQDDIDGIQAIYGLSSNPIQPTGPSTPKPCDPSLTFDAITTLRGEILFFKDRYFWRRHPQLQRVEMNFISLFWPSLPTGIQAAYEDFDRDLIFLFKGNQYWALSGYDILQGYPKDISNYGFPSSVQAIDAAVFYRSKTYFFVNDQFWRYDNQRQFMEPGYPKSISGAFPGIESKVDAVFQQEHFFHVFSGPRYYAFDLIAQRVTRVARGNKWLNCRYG
Chain of MMP-12 (P39900 106-470, species assumed): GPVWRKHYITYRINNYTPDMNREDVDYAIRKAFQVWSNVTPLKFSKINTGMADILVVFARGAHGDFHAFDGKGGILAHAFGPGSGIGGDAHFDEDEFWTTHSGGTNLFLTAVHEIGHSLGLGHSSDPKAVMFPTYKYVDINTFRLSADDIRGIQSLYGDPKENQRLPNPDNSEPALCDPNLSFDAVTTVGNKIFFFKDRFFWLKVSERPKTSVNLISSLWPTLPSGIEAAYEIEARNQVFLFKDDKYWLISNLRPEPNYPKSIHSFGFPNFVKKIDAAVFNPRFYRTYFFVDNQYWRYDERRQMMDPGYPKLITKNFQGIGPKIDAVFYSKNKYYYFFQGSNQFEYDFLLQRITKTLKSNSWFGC
Chain of MMP-3 (P08254 100-477, species assumed): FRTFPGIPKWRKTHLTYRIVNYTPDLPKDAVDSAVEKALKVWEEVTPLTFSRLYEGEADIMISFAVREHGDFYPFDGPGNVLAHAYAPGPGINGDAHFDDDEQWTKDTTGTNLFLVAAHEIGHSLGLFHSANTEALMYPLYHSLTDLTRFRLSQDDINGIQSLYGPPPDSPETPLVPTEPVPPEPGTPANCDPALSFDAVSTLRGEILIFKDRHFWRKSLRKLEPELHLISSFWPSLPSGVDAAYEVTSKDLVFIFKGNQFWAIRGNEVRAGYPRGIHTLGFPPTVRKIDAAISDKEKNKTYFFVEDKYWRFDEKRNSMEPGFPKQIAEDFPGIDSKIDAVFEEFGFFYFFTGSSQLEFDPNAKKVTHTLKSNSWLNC

## [2H]C([2H])([2H])c1ccc(C#Cc2ccc(S(=O)(=O)N[C@H](Cc3c[nH]c4ccccc34)C(=O)O)s2)cc1 [Compound 118, (R)-3-(1H-Indol-3-yl)-2-[5-(4-trideuteromethyl-phenylethynyl)-thiophene-2-sulfonylamino]-propionic acid-(D3, 98%)]
[1]; with NADPH
  % Mean Remaining Parent with NADPH (%): 85%
[1]; without NADPH (control)
  % Mean Remaining Parent without NADPH (%): 91%
[2]; i.t. 10 μl/mouse daily day 1-6
  Paw withdrawal threshold, mean, Day 5: 0.320 grams
  Paw withdrawal threshold, mean, Day 7: 1.024 grams
[2]; i.t. 10 μl/mouse daily day 1-6, testing 2 hr after first i.t. injection
  Paw withdrawal threshold, mean, Day 1: 0.321 grams
[2]; i.t. administration, as compared to vehicle and compound #5
  Reversal of allodynia: almost complete reversal of allodynia
[2]; i.t. study, post operative injury baseline, before treatment
  Paw withdrawal threshold, mean, Day 0 Postoperative Baseline: 0.077 grams
[2]; i.t. study, testing prior to SNL injury, before treatment
  Paw withdrawal threshold, mean, Day(-2) Pre-operative Baseline: 1.268 grams
[3]; [5]
  Paw withdrawal threshold, mean, Day 1: 0.170 grams
  Paw withdrawal threshold, mean, Day 2: 0.350 grams
  Paw withdrawal threshold, mean, Day 5: 1.470 grams
  Paw withdrawal threshold, mean, Day 6: 0.867 grams
  Paw withdrawal threshold, mean, Day 7: 0.250 grams
[3]; i.p. administration, by day 5
  Reversal of mechanical allodynia: complete reversal of mechanical alodynia
[3]; i.p. study, baseline before treatment
  Paw withdrawal threshold, mean, Day 0 Postoperative Baseline: 0.096 grams

## CNC(=O)[C@H](Cc1c[nH]c2ccccc12)NC(=O)[C@@H](CC(=O)NO)CC(C)C [GM6001]
Mechanical nociception
  Effect on mechanical nociception: attenuate mechanical nociception

## CNC(=O)[C@@H](NC(=O)[C@H](CC(C)C)[C@H](O)C(=O)NO)C(C)(C)C [Marimastat]
humans
  Musculoskeletal toxicities: time-dependent and dose-dependent musculoskeletal toxicities (arthralgia, myalgia, tendinitis)

## CCOCOC[C@H](C[C@H](C)C(=O)NO)NC(=O)c1ccc(Oc2ccccc2)cc1 [ONO-4817]
MMP-12
  Ki: 0.45 nM
MMP-2
  Ki: 0.73 nM
MMP-8
  Ki: 1.1 nM
MMP-13
  Ki: 1.1 nM
MMP-9
  Ki: 2.1 nM
MMP-3
  Ki: 42 nM
MMP-7
  Ki: 2500 nM
Rat formalin test; MMP-2 injected intrathecally
  Effect on the analgesic effect of intrathecal MMP-2 (Phase I agitation behavior): antagonized
Rat formalin test; inhibitor given alone
  Effect on the rat formalin test when given alone: no affect

## TIMP-1: endogenous matrix metalloproteinase inhibitor
[4]
  Effect on neuropathic pain in the SNL model: suppressed neuropathic pain

Reference: US8765953B2, “Compounds and methods for the treatment of pain and other diseases” (Aquilus Pharmaceuticals, Inc., priority 2008, dated 2014)
